Measured values reported in ChEMBL document CHEMBL1201862, “PubChem BioAssay data set” (2004).
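These data come from cells grown in 96-well plates and exposed to compound for 48 hours at five concentrations. GI50 = concentration required for 50% inhibition of growth.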 Active and inactive are the calls of the source. Cut-off read from the data, not from the text of the source: active = GI50 up to about 1.1 µM and inactive = higher.

What was measured:
Assay in all cases: NCI-60 cell line screen, 48 h
Hs-578T = test system: Hs-578T
K562 = test system: K562
TK-10 = test system: TK-10
SF-295 = test system: SF-295
COLO 205 = test system: COLO 205
OVCAR-5 = test system: OVCAR-5
MDA-N = test system: MDA-N
786-0 = test system: 786-0
MDA-MB-231 = test system: MDA-MB-231
SN12C = test system: SN12C
PC-3 = test system: PC-3
RXF 393 = test system: RXF 393
MCF7 = test system: MCF7
UO-31 = test system: UO-31
SW-620 = test system: SW-620
MOLT-4 = test system: MOLT-4
NCI-H522 = test system: NCI-H522
KM12 = test system: KM12
EKVX = test system: EKVX
HL-60 = test system: HL-60

Measured: GI50

CC(C)(C)OC(=O)N(O)[C@@H]1C=C[C@H](n2cnc3c(N)ncnc32)C1
inactive: Hs-578T 92.3 µM | K562 > 100 µM | TK-10 > 100 µM | SF-295 > 100 µM | COLO 205 > 100 µM | OVCAR-5 > 100 µM | MDA-N > 100 µM | 786-0 > 100 µM | MDA-MB-231 > 100 µM | SN12C > 100 µM | PC-3 > 100 µM | RXF 393 > 100 µM | MCF7 > 100 µM | UO-31 > 100 µM | SW-620 > 100 µM | MOLT-4 > 100 µM | NCI-H522 > 100 µM | KM12 > 100 µM | EKVX > 100 µM

C[C@@]12c3c4ccc(C=O)c3Oc3ccc(C=O)c(c31)Oc1c(C=O)ccc(c12)O4
inactive: Hs-578T > 100 µM | K562 > 100 µM | TK-10 > 100 µM | SF-295 > 100 µM | COLO 205 > 100 µM | OVCAR-5 > 100 µM | MDA-N > 100 µM | 786-0 > 100 µM | MDA-MB-231 > 100 µM | SN12C > 100 µM | PC-3 > 100 µM | MCF7 > 100 µM | UO-31 > 100 µM | SW-620 > 100 µM | MOLT-4 > 100 µM | KM12 > 100 µM | EKVX > 100 µM

COc1ccc(/C(=N/OCCCC(=O)O)c2cccs2)cc1
inactive: Hs-578T > 100 µM | K562 > 100 µM | TK-10 > 100 µM | SF-295 > 100 µM | COLO 205 > 100 µM | OVCAR-5 > 100 µM | MDA-N > 100 µM | 786-0 > 100 µM | MDA-MB-231 > 100 µM | SN12C > 100 µM | PC-3 > 100 µM | RXF 393 > 100 µM | MCF7 > 100 µM | UO-31 > 100 µM | SW-620 > 100 µM | MOLT-4 > 100 µM | KM12 > 100 µM | EKVX > 100 µM | HL-60 > 100 µM

C[C@@]12C[C@@H](c3ccccc3O1)N1Cc3ccccc3CSC1=N2
inactive: Hs-578T > 100 µM | K562 64.9 µM | TK-10 57.7 µM | SF-295 > 100 µM | COLO 205 35.2 µM | OVCAR-5 > 100 µM | MDA-N 93.5 µM | 786-0 38.8 µM | MDA-MB-231 > 100 µM | SN12C > 100 µM | PC-3 83.6 µM | RXF 393 > 100 µM | MCF7 50.4 µM | UO-31 > 100 µM | SW-620 > 100 µM | MOLT-4 56.6 µM | NCI-H522 49.7 µM | KM12 > 100 µM | EKVX > 100 µM

C=C1CN(C(=O)c2cc3cc(OC)c(OC)c(OC)c3[nH]2)c2cc([N+](=O)[O-])ccc21
inactive: Hs-578T 4.47 µM | K562 > 100 µM | TK-10 26.5 µM | COLO 205 > 100 µM | OVCAR-5 > 100 µM | MDA-N > 100 µM | 786-0 30.5 µM | MDA-MB-231 17.5 µM | SN12C > 100 µM | PC-3 > 100 µM | RXF 393 14.6 µM | MCF7 > 100 µM | UO-31 > 100 µM | SW-620 > 100 µM | MOLT-4 69.3 µM | KM12 > 100 µM | EKVX > 100 µM | HL-60 > 100 µM

Cc1cc(NC[C@H](O)[C@H](O)[C@H](O)CO)c(Sc2cc(=O)[nH]c(=O)[nH]2)cc1C
inactive: Hs-578T > 62.5 µM | K562 > 62.5 µM | TK-10 > 62.5 µM | SF-295 > 62.5 µM | COLO 205 > 62.5 µM | OVCAR-5 > 62.5 µM | MDA-N > 62.5 µM | 786-0 > 62.5 µM | MDA-MB-231 > 62.5 µM | SN12C > 62.5 µM | PC-3 > 62.5 µM | RXF 393 > 62.5 µM | MCF7 > 62.5 µM | UO-31 > 62.5 µM | SW-620 > 62.5 µM | MOLT-4 > 62.5 µM | NCI-H522 > 62.5 µM | KM12 > 62.5 µM | EKVX > 62.5 µM

CC1(CCOCc2ccccc2)NC(=O)NC1=O (stereo not drawn)
inactive: Hs-578T > 100 µM | K562 > 100 µM | TK-10 > 100 µM | SF-295 > 100 µM | OVCAR-5 > 100 µM | MDA-N > 100 µM | 786-0 > 100 µM | MDA-MB-231 > 100 µM | SN12C > 100 µM | PC-3 > 100 µM | RXF 393 > 100 µM | UO-31 > 100 µM | SW-620 > 100 µM | MOLT-4 > 100 µM | NCI-H522 > 100 µM | KM12 > 100 µM | EKVX > 100 µM
